Patent publication US9439875B2, “Anxiolytic effect of pterostilbene” (The United States of America, as represented by The …, priority 2011, dated 2016)
“And” between values parts separate entries of the source, which are not always exact repeats. Equal entries are not always repeated. “Also recorded” adds a separate entry of the source. Where two headings read alike, the source gives them in different places.

Columns and labels:
[1] = Prefrontal cortex level of pterostilbene by GC-MS; type: in vivo, mouse; settings: all the doses administered (1-10 mg/kg p.o.)
Protocol: (§1) After the EPM session, blood samples were taken from each mouse by submandibular vein puncture in heparinized blood collection vials. Mice were then sacrificed and brains quickly removed. Their prefrontal cortex (PFC) and hippocampus were dissected out on ice, and immediately frozen in liquid nitrogen and stored at −80° C. until further processing. Blood samples were centrifuged at 2000 rpm at 4° C. for 20 min to get the plasma as supernatant. The plasma samples were stored at −80° C. until used.
Hippocampus tissues were kept at −80° C. until time of extraction. Hippocampus (left and right) from 2-3 animals was combined in an Eppendorf tube, and processed as one sample. […]
The nitrogen-dried samples (plasma and brain tissue extracts) were treated with 30 μL of a 1:1 mixture of N,O-bis[trimethylsilyl]trifluoroacetamide and dimethylformamide (Pierce Biotechnology, Inc., Rockford, Ill.) and heated at 70° C. for 40 min. The derivatized samples were analyzed for levels of pterostilbene using a JEOL GCMate II Instrument (JEOL USA Inc., Peabody, Mass.) equipped with a J&W DB-5 capillary column (0.25 mm internal diameter, 0.25 μm film thickness, and 30 m length; Agilent Technologies, Foster City, Calif.). […] Quantitation of pterostilbene was done using an external standard of a synthetic sample of pterostilbene previously characterized for structure and purity.

[2] = Hippocampus level of pterostilbene by GC-MS; type: in vivo, mouse; settings: for Pterostilbene level in the hippocampus (± SD): mouse
Protocol: as §1
Hippocampus tissues were kept at −80° C. until time of extraction. Hippocampus (left and right) from 2-3 animals was combined in an Eppendorf tube, and processed as one sample. To the tube was added 200 μL phosphate buffer (0.2M NaH2PO4:0.2M Na2HPO4, and the tissues were homogenized manually for 2 minutes. To 100 μl aliquot, 50 μL β-glucuronidase (5000 U/mL potassium phosphate buffer) was added. The mixture was vortex-mixed, and incubated (37° C., 20 hours) while shaking (750 rpm). The samples were then centrifuged (15 min, 7000 g, 4° C.). The supernatant was collected and partitioned with ethyl acetate (200 μL, twice). The ethyl acetate layers were combined, dried under a stream of nitrogen, and used for GC-MS analysis. Extraction of the prefrontal cortex (PFC) was performed in the same manner as the hippocampus; PFC tissues from three animals were combined and treated as one sample.
(§2) The nitrogen-dried samples (plasma and brain tissue extracts) were treated with 30 μL of a 1:1 mixture of N,O-bis[trimethylsilyl]trifluoroacetamide and dimethylformamide (Pierce Biotechnology, Inc., Rockford, Ill.) and heated at 70° C. for 40 min. The derivatized samples were analyzed for levels of pterostilbene using a JEOL GCMate II Instrument (JEOL USA Inc., Peabody, Mass.) equipped with a J&W DB-5 capillary column (0.25 mm internal diameter, 0.25 μm film thickness, and 30 m length; Agilent Technologies, Foster City, Calif.). […] The carrier gas was ultrahigh purity helium, at 1 mL/min flow rate. The injection port, GC-MS interface, and ionization chamber were kept at 250, 230, and 230° C., respectively. The volume of injection was 2 μL (splitless injection). The mass spectrum was acquired in the positive, selected ion-monitoring mode (m/z 328, 313, and 297); electron impact 70 eV. GC-MS analyses were in duplicates. The retention time of pterostilbene was 10.2 min. Quantitation of pterostilbene was done using an external standard of a synthetic sample of pterostilbene previously characterized for structure and purity.

[3] = Plasma level of pterostilbene by GC-MS; type: in vivo; settings: mouse, after EPM session; for concentration at 65 min: Swiss Webster, plasma, oral, read-out: Pterostilbene level in the plasma (± SD)
Protocol: as §1
Plasma were kept at −80° C., and thawed on ice prior to extraction. Plasma were treated with β-glucuronidase, to hydrolyze any glucuronidated pterostilbene, following published procedures (Remsberg et al., supra). Briefly, 50 μL plasma (from each animal) was transferred to an Eppendorf tube, and 60 μL of β-glucuronidase solution (5000 U/mL potassium phosphate buffer, 75 mM, pH 6.8 at 37° C.) was added. The mixture was vortex-mixed then incubated at 37° C. while shaking at 750 rpm for 20 hrs. Thereafter, ice-cold HPLC grade acetonitrile was added, vortex-mixed, and centrifuged for 5 min at 5000 rpm, 4° C. The supernatant was collected, and dried under a stream of nitrogen. The dried supernatant was used for GC-MS analysis.
as §2

Swiss Webster mice = assay: Spontaneous motor (locomotor) activity; type: in vivo, mouse
Protocol: To measure spontaneous motor activity, adult Swiss Webster mice (n=8-10/group) were administered with pterostilbene by oral gavage. Each mouse was then placed in the locomotor chamber and acclimated in the Plexiglas enclosure for 30 min. After the 30 min acclimation period, locomotor activity was measured for 30 min using an automated activity monitoring system (San Diego Instruments, CA, USA). Total activity was expressed as the total number of interruptions of 16 cell photobeams per chamber.

[4] = in vivo; cited from earlier work

Pterostilbene level in the pre-frontal cortex tissues [1]: trace levels
Pterostilbene level in the hippocampus (± SD) ([2]; 2 mg/kg BW p.o.): 0.2627 ± 0.0230 ng/hippocampus
Pterostilbene level in the hippocampus (± SD) ([2]; 5 mg/kg BW p.o.): 0.5314 ± 0.1830 ng/hippocampus
Pterostilbene level in the hippocampus ([2]; range over 2, 5 and 10 mg/kg doses): 0.2627-1.1217 ng/hippocampus
Pterostilbene level in the plasma (± SD) ([3]; 1 mg/kg BW p.o.): 10.0887 ± 6.6699 ng/mL
Pterostilbene level in the plasma (± SD) ([3]; 10 mg/kg BW p.o.): 130.2651 ± 40.2558 ng/mL
concentration at 65 min ([3]; 1 mg/kg BW, 1 mg/kg BW p.o.): 10.1 ± 6.67 ng/mL
concentration at 65 min ([3]; 2 mg/kg BW, 2 mg/kg BW p.o.): 27 ± 7.27 ng/mL
concentration at 65 min ([3]; 5 mg/kg BW, 5 mg/kg BW p.o.): 72 ± 19 ng/mL
concentration at 65 min ([3]; 10 mg/kg BW, 10 mg/kg BW p.o.): 130 ± 40.2 ng/mL
locomotor activity (Swiss Webster mice; highest dose (10 mg/kg)): didn't have any effect
spontaneous motor activity (Swiss Webster mice; maximal anxiolytic dose (2 mg/kg), post hoc comparison): not affected
SMILES: COc1cc(/C=C/c2ccc(O)cc2)cc(OC)c1 [pterostilbene]
Pterostilbene level in the hippocampus (± SD) ([2]; 10 mg/kg BW p.o.): 1.1217 ng/hippocampus and 1.1217 ± 0.1322 ng/hippocampus
locomotor activity (total number of photobeam interruptions per chamber) (Swiss Webster mice; 1-10 mg/kg by oral gavage, one-way ANOVA): no stimulant or depressive actions; also recorded: no significant effect
sedating tendency in EPM and locomotor activity monitoring chambers (Swiss Webster mice; higher doses): did not show any sedating tendency
half-life [4]: approximately 2 hr
